The term DC50 denotes the concentration giving 50% degradation. Low values mean a more potent degrader, high ones a less potent degrader. A word on the inhibition: it is the relative decrease from the control value, in per cent. Low values mean little suppression, high ones strong suppression.

The target in assay [1] is T1, SMARCA2-HiBiT HeLa cells (protein which is expressed from the SMARCA2 gene) (Homo sapiens, UniProt P51531).
T1 construct: protein which is expressed from the SMARCA2 and SMARCA4 genes; host or cells: HeLa (SMARCA2-HiBiT engineered line)
T1 sequence (P51531 whole entry): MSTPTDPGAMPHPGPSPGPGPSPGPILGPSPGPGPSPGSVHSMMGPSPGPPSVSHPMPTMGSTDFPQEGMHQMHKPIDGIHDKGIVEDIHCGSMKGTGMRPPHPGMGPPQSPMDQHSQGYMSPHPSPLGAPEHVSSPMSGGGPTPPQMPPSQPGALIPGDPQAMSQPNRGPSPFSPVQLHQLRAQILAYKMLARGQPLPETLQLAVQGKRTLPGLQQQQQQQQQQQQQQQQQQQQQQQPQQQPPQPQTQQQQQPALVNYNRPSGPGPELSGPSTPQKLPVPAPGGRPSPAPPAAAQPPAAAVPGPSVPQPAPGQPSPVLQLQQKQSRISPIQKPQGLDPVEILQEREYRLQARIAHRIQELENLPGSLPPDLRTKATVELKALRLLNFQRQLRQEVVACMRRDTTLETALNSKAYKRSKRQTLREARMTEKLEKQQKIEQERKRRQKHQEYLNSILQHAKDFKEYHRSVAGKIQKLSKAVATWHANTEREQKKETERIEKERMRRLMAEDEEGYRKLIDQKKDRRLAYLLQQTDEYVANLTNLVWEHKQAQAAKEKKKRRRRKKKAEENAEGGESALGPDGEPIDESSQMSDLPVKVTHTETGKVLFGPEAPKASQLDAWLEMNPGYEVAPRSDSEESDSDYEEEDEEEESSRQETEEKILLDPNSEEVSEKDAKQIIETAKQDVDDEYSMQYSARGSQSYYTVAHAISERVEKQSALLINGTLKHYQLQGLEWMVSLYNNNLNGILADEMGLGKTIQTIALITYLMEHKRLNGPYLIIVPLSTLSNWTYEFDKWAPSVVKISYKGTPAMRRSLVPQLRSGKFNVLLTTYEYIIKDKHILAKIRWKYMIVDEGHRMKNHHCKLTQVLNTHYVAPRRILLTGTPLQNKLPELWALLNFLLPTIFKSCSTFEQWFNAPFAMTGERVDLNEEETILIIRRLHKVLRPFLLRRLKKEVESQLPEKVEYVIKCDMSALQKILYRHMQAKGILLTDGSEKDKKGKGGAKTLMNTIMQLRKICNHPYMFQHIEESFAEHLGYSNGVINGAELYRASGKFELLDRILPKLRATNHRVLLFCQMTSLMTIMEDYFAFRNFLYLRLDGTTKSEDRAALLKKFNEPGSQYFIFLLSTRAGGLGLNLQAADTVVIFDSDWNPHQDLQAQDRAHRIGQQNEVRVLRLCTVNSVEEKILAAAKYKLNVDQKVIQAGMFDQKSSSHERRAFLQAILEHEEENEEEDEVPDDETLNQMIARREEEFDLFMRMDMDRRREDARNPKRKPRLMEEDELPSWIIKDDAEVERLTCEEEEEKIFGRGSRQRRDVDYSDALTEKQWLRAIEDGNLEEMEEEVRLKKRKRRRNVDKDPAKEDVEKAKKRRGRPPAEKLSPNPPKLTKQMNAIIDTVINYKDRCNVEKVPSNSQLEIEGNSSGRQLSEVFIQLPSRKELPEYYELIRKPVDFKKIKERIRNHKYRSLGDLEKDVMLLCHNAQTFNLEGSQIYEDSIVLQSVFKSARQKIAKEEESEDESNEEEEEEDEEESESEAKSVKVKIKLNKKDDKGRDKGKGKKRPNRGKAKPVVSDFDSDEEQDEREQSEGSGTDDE
The experiment in a line: SMARCA2 degradation assay (HiBiT-fusion HeLa cell line, 24 h, luminescence). It counts as cell-based. The essentials: (§1)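 HiBiT-fusion HeLa lines, 8,000 cells/well, overnight attachment; cpd 10-pt series (typically 10 μM–300 pM), 24 h, 37° C. Lysis with LgBiT + HiBiT substrate, 10 min shaking at RT, luminescence read. DC50 from dose-response fit; % degradation also scored at 1 μM.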

The target in assay [2] is T2, SMARCA4-HiBiT HeLa cells (protein which is expressed from the SMARCA4 gene) (Homo sapiens, UniProt P51532).
T2 construct: protein which is expressed from the SMARCA2 and SMARCA4 genes; host or cells: HeLa (SMARCA4-HiBiT engineered line)
T2 sequence (P51532 whole entry): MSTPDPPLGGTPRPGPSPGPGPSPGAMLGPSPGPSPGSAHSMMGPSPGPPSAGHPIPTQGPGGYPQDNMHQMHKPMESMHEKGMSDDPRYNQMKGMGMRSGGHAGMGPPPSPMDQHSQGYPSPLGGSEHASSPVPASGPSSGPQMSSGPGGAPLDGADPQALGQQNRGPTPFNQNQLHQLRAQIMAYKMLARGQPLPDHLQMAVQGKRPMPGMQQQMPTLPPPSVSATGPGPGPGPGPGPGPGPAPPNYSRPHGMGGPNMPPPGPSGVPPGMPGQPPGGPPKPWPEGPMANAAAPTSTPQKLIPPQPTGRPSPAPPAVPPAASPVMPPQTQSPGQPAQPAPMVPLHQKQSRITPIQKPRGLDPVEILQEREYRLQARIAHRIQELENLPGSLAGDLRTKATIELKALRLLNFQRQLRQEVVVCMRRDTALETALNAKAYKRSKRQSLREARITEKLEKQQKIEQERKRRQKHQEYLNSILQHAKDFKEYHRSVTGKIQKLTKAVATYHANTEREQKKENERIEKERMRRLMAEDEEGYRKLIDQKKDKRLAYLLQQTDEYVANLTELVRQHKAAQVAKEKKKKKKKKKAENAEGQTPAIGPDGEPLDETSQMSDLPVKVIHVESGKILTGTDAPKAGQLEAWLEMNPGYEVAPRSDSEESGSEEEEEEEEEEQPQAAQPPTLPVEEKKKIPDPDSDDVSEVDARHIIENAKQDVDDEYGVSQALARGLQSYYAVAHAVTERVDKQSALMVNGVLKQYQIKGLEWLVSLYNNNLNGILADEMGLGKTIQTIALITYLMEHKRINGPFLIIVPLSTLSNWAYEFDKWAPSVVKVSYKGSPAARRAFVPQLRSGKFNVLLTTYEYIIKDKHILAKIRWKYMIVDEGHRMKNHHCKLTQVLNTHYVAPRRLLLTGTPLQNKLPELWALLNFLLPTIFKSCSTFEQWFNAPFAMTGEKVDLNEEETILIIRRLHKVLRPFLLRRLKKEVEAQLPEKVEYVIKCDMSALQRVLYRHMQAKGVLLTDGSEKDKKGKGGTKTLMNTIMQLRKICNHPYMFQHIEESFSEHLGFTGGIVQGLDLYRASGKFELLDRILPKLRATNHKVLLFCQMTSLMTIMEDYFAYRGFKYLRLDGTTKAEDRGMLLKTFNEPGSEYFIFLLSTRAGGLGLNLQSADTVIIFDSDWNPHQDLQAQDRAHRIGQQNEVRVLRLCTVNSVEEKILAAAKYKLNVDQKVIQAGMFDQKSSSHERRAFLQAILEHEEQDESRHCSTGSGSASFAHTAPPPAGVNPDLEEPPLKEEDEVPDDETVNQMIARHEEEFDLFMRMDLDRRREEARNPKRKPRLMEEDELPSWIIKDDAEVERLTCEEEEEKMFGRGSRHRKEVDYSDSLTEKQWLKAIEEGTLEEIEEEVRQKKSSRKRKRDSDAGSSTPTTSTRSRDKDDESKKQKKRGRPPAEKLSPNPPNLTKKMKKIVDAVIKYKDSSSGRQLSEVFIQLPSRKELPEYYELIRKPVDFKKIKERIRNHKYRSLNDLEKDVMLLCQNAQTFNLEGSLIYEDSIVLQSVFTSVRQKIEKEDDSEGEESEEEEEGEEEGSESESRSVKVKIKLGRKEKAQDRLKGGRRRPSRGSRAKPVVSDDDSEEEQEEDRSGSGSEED
The experiment in a line: SMARCA4 degradation assay (HiBiT-fusion HeLa cell line, 24 h, luminescence). The assay is classed as cell-based. The essentials:
as §1
(In general: With HiBiT, luminescence reflects the tagged protein that the partner subunit can reach.)

`C[C@@H]1CCN(c2cc(-c3ccccc3O)nnc2N)CCN1c1ccnc(C#CCN(C)C)c1C#N` [Compound P-406, 4-{(R)-4-[3-amino-6-(0-hydroxyphenyl)-4-pyridazinyl]-7-methyl-1,4-diazepan-1-yl}-2-[3-(dimethylamino)-1-propynyl]nicotinonitrile]: the DC50 in assay [1] and in assay [2] was 0.5 to 5 µM throughout. Moreover, in assay [1] (1 μM), the “SMARCA2 % Degradation @ 1 μM” value was “++ (++=30-70%)”. Besides, the inhibition at 1 µM in assay [2] (1 μM) is 30 to 70%.
Regarding `CN(C)CC#Cc1nccc(N2C[C@@H]3CN(c4cc(-c5ccccc5O)nnc4N)C[C@@H]3C2)n1` [Compound P-181, o-{5-[(1R,5S)-7-{2-[3-(dimethylamino)-1-propynyl]-4-pyrimidinyl}-3,7-diazabicyclo[3.3.0]oct-3-yl]-6-amino-3-pyridazinyl} phenol], the results for the DC50 in assay [1] and in assay [2] were 0.05 to 0.5 µM and below 0.05 µM, respectively. Further, in assay [1] (@ 1 μM), the “SMARCA2 % Degradation @ 1 μM” value was “++ (++=30-70%)”. Moreover, the inhibition at 1 µM in assay [2] (@ 1 μM) lay within 30 to 70%.
As for `C[C@@H]1CCN(c2cc(-c3ccccc3O)nnc2N)CCN1c1ccnc(/C=C/CN(C)C)n1` [Compound P-218, o-{5-[(R)-4-{2-[(E)-3-(dimethylamino)-1-propenyl]-4-pyrimidinyl}-5-methyl-1,4-diazepan-1-yl]-6-amino-3-pyridazinyl}phenol], the half-maximal degradation concentration (DC50) in assay [1] and in assay [2] was 0.05 to 0.5 µM throughout. The “SMARCA2 % Degradation @ 1 μM” value in assay [1] (@ 1 μM) is “+++ (+++=>70%)”. Besides, in assay [2] (@ 1 μM), the inhibition at 1 µM lay in the range of 30 to 70%.
Take `Nc1nnc(-c2ccccc2O)cc1N1CCN(c2ccnc(C#CCNC(=O)c3ccn(C4CC4)n3)n2)CC1` [Compound P-11, N-[3-(4-{4-[3-amino-6-(2-hydroxyphenyl)pyridazin-4-yl]piperazin-1-yl}pyrimidin-2-yl)prop-2-yn-1-y1]-1-cyclopropyl-1H-pyrazole-3-carboxamide]: the DC50 in assay [1] and in assay [2] was below 0.05 µM throughout. Besides, the “SMARCA2 % Degradation @ 1 μM” value in assay [1] (@ 1 μM) is on record as “++ (++=30-70%)”. This compound registered an inhibition at 1 µM in assay [2] (@ 1 μM) of 30 to 70%.
Consider `Nc1nnc(-c2ccccc2O)cc1N1CCCN(c2ccnc(C#CCN3CCOC3=O)n2)CC1` [Compound P-374, 3-[3-(4-{4-[3-amino-6-(o-hydroxyphenyl)-4-pyridazinyl]-1,4-diazepan-1-yl}-2-pyrimidinyl)-2-propynyl]-1,3-oxazolidin-2-one], for which the DC50 in assay [1] and in assay [2] was 0.05 to 0.5 µM in each case. The “SMARCA2 % Degradation @ 1 μM” value in assay [1] (@ 1 μM) is given as “+++ (+++=>70%)”. The inhibition at 1 µM in assay [2] (@ 1 μM) is 30 to 70%.
For the compound `Nc1nnc(-c2ccccc2O)cc1N1CCN(c2ccnc(C#CCNC(=O)c3cc4n(n3)CCOC4)n2)CC1` [Compound P-58, N-(3-(4-(4-(3-amino-6-(2-hydroxyphenyl)pyridazin-4-yl)piperazin-1-yl)pyrimidin-2-yl)prop-2-yn-1-yl)-6,7-dihydro-4H-pyrazolo[5,1-c][1,4]oxazine-2-carboxamide], the DC50 in assay [1] and in assay [2] was 0.05 to 0.5 µM each time. For the same compound, the “SMARCA2 % Degradation @ 1 μM” value in assay [1] (@ 1 μM) is reported as “++ (++=30-70%)”. In assay [2] (@ 1 μM), this compound showed an inhibition at 1 µM of 30 to 70%.
For `CN1CCCC1C#Cc1nccc(N2CCCN(c3cc(-c4ccccc4O)nnc3N)CC2)n1` (stereo not drawn) [Compound P-350, 0-[6-amino-5-(4-{2-[2-(1-methyl-2-pyrrolidinyl)cthynyl]-4-pyrimidinyl}-1,4-diazepan-1-yl)-3-pyridazinyl]phenol], the DC50 in assay [1] and in assay [2] was 0.05 to 0.5 µM throughout. Moreover, in assay [1] (@ 1 μM), the “SMARCA2 % Degradation @ 1 μM” value is recorded as “+++ (+++=>70%)”. In assay [2] (@ 1 μM), this compound yielded an inhibition at 1 µM above 70%.
Take `Nc1nnc(-c2ccccc2O)cc1N1CCCN(c2ccnc(C#CCN3CCC(Cc4ccccc4)CC3)n2)CC1` [Compound P-337, 0-[6-amino-5-(4-{2-[3-(4-benzyl-1-piperidyl)-1-propynyl]-4-pyrimidinyl}-1,4-diazepan-1-yl)-3-pyridazinyl]phenol]: the DC50 in assay [1] and in assay [2] was 0.05 to 0.5 µM each time. Also, in assay [1] (@ 1 μM), the “SMARCA2 % Degradation @ 1 μM” value is “+++ (+++=>70%)”. Also, in assay [2] (@ 1 μM), the inhibition at 1 µM is above 70%.
Consider `C[C@@H]1CN(c2ccnc(C#CCNC(=O)c3cc4ncccn4n3)n2)CCN1c1cc(-c2ccccc2O)nnc1N` [Compound P-49, (R)-N-(3-(4-(4-(3-amino-6-(2-hydroxyphenyl)pyridazin-4-yl)-3-methylpiperazin-1-yl)pyrimidin-2-yl)prop-2-yn-1-yl)pyrazolo[1,5-a]pyrimidine-2-carboxamide], for which the 50% degradation concentration (DC50) was above 5 µM in assay [1] and 0.5 to 5 µM in assay [2]. Moreover, in assay [1] (@ 1 μM), the “SMARCA2 % Degradation @ 1 μM” value is reported as “+ (+=<30%)”. In addition, the inhibition at 1 µM in assay [2] (@ 1 μM) was below 30%.
For `Nc1nnc(-c2ccccc2O)cc1N1CCCN(c2ccnc(C#CC34CCCN3CCC4)n2)CC1` [Compound P-355, 0-[6-amino-5-(4-{2-[2-(hexahydro-1H-pyrrolizin-7a-yl)ethynyl]-4-pyrimidinyl}-1,4-diazepan-1-yl)-3-pyridazinyl]phenol], the DC50 in assay [1] and in assay [2] was 0.05 to 0.5 µM each time. Moreover, the “SMARCA2 % Degradation @ 1 μM” value in assay [1] (@ 1 μM) is on record as “+++ (+++=>70%)”. Besides, the inhibition at 1 µM in assay [2] (@ 1 μM) was above 70%.
In the case of `Nc1nnc(-c2ccccc2O)cc1N1CCCN(c2ccnc(C#CCn3cnc4ccccc43)n2)CC1` [Compound P-150, 2-(5-(4-(2-(3-(1H-benzo[d]imidazol-1-yl)prop-1-yn-1-yl)pyrimidin-4-yl)-1,4-diazepan-1-yl)-6-aminopyridazin-3-yl)phenol], the DC50 in assay [1] and in assay [2] was 0.05 to 0.5 µM throughout. The inhibition at 1 µM in assay [2] (@ 1 μM) fell in the range of 30 to 70%.
On to `CN(C)CC#Cc1cc(N2C[C@@H]3CN(c4cc(-c5ccccc5O)nnc4N)C[C@@H]3C2)ccn1` [Compound P-389, 0-{5-[(1R,5S)-7-{2-[3-(dimethylamino)-1-propynyl]-4-pyridyl}-3,7-diazabicyclo[3.3.0]oct-3-yl]-6-amino-3-pyridazinyl} phenol], for which the 50% degradation concentration (DC50) in assay [1] was 0.05 to 0.5 µM; in assay [2], below 0.05 µM. Further, in assay [1] (1 μM), the “SMARCA2 % Degradation @ 1 μM” value was “++ (++=30-70%)”. Besides, the inhibition at 1 µM in assay [2] (1 μM) lay in the range of 30 to 70%.
Consider `Nc1nnc(-c2ccccc2O)cc1N1CC2CCN(c3ccnc(C#CCNC(=O)c4cc5ncccn5n4)n3)C2C1` (stereo not drawn) [Compound P-36, N-(3-(4-(5-(3-amino-6-(2-hydroxyphenyl)pyridazin-4-yl)hexahydropyrrolo[3,4-b]pyrrol-1(2H)-yl)pyrimidin-2-yl)prop-2-yn-1-yl)pyrazolo[1,5-a]pyrimidine-2-carboxamide], for which the 50% degradation concentration (DC50) in assay [1] and in assay [2] was 0.05 to 0.5 µM each time. Also, the “SMARCA2 % Degradation @ 1 μM” value in assay [1] (@ 1 μM) was “+++ (+++=>70%)”. Further, the inhibition at 1 µM in assay [2] (@ 1 μM) is above 70%.
Regarding `C[C@@H]1CCN(c2cc(-c3ccccc3O)nnc2N)CCN1c1ccnc(C#CCN(C)CC(F)F)n1` [Compound P-155, o-{5-[(R)-4-(2-{3-[(2,2-difluoroethyl)-N-methylamino]-1-propynyl}-4-pyrimidinyl)-5-methyl-1,4-diazepan-1-yl]-6-amino-3-pyridazinyl}phenol], the DC50 in assay [1] and in assay [2] was 0.05 to 0.5 µM throughout. For the same compound, the “SMARCA2 % Degradation @ 1 μM” value in assay [1] (@ 1 μM) was “++ (++=30-70%)”. In assay [2] (@ 1 μM), this compound returned an inhibition at 1 µM of 30 to 70%.
Take `Nc1nnc(-c2ccccc2O)cc1N1CCN(c2ccnc(C#CCNC(=O)C3COc4ccccc4O3)n2)CC1` (stereo not drawn) [Compound P-61, N-(3-(4-(4-(3-amino-6-(2-hydroxyphenyl)pyridazin-4-yl)piperazin-1-yl)pyrimidin-2-yl)prop-2-yn-1-yl)-2,3-dihydrobenzo[b][1,4]dioxine-2-carboxamide]: the 50% degradation concentration (DC50) in assay [1] and in assay [2] was 0.05 to 0.5 µM each time. Also, in assay [1] (@ 1 μM), the “SMARCA2 % Degradation @ 1 μM” value is recorded as “++ (++=30-70%)”. Moreover, in assay [2] (@ 1 μM), the inhibition at 1 µM lay in the range of 30 to 70%.
`C[C@@H]1CCN(c2cc(-c3ccccc3O)nnc2N)CCN1c1nc(C#CCN2CCCC2=O)ncc1F` [Compound P-203, 1-[3-(4-{(R)-4-[3-amino-6-(o-hydroxyphenyl)-4-pyridazinyl]-7-methyl-1,4-diazepan-1-y1}-5-fluoro-2-pyrimidinyl)-2-propynyl]-2-pyrrolidinone]: the 50% degradation concentration (DC50) in assay [1] and in assay [2] was 0.05 to 0.5 µM each time. Also, the “SMARCA2 % Degradation @ 1 μM” value in assay [1] (@ 1 μM) was “++ (++=30-70%)”. This compound also registered an inhibition at 1 µM in assay [2] (@ 1 μM) of 30 to 70%.
Regarding `Nc1nnc(-c2ccccc2O)cc1N1CCN(c2ccnc(C#CCNC(=O)c3cc4n(n3)CCCC4)n2)CC1` [Compound P-69, N-(3-(4-(4-(3-amino-6-(2-hydroxyphenyl)pyridazin-4-yl)piperazin-1-yl)pyrimidin-2-yl)prop-2-yn-1-yl)-4,5,6,7-tetrahydropyrazolo[1,5-a]pyridine-2-carboxamide], the DC50 in assay [1] was 0.05 to 0.5 µM; in assay [2], below 0.05 µM. The “SMARCA2 % Degradation @ 1 μM” value in assay [1] (@ 1 μM) is “++ (++=30-70%)”. Moreover, in assay [2] (@ 1 μM), the inhibition at 1 µM was 30 to 70%.
As for `C[C@@H]1CCN(c2cc(-c3ccccc3O)nnc2N)CCN1c1ccc(C#N)c(C#CCn2ccnc2)n1` [Compound P-429, 6-{(R)-4-[3-amino-6-(o-hydroxyphenyl)-4-pyridazinyl]-7-methyl-1,4-diazepan-1-y1}-2-[3-(1-imidazolyl)-1-propynyl]nicotinonitrile], the half-maximal degradation concentration (DC50) in assay [1] and in assay [2] was 0.05 to 0.5 µM throughout. Also, the “SMARCA2 % Degradation @ 1 μM” value in assay [1] (1 μM) is listed as “+++ (+++=>70%)”. In assay [2] (1 μM), this compound had an inhibition at 1 µM of 30 to 70%.
Take `C[C@@H]1CCN(c2cc(-c3ccccc3O)nnc2N)CCN1c1ccnc(C#C[C@@H](C)O)n1` [Compound P-198, o-{5-[(R)-4-{2-[(R)-3-hydroxy-1-butynyl]-4-pyrimidinyl}-5-methyl-1,4-diazepan-1-yl]-6-amino-3-pyridazinyl}phenol]: the DC50 was 0.05 to 0.5 µM in assay [1] and 0.5 to 5 µM in assay [2]. In addition, the “SMARCA2 % Degradation @ 1 μM” value in assay [1] (@ 1 μM) is recorded as “+++ (+++=>70%)”. The compound also came in with an inhibition at 1 µM in assay [2] (@ 1 μM) of 30 to 70%.

The values above are taken from patent publication US20260265238A1, “COMPOUNDS AND PHARMACEUTICAL COMPOSITIONS THAT DEGRADE SWI/SNF-RELATED MATRIX-ASSOCIATED ACTIN-DEPENDENT REGULATOR OF CHROMATIN SUBFAMILY A” (Plexium, Inc., priority 2023, published 2026).
